Experimental data from patent publication US20110166121A1 (LG LIFE SCIENCES LTD., priority 2008, published 2011).

Columns and labels:
[1] = test system: Human platelet aggregation caused by ADP; assay: Inhibition of ADP-induced platelet aggregation (Mimic-human PRP); type: cell-based; conditions: 20 μM ADP, human platelet concentrate diluted with PPP, absorption at 595 nm
In short: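 Ki came from non-linear sigmoidal fits of inhibition, measured as the 3-min rise in absorbance at 595 nm after 20 μM ADP, relative to 0/20 μM ADP controls. Platelets (3–4×10^8/mL in PPP-diluted human PRP) were exposed to 0.01–30 μM compound for 20 min at room temperature beforehand.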

Human P2Y12 receptor = target: T1, Human P2Y12 receptor (Homo sapiens, UniProt Q9H244); assay: Human P2Y12 receptor cell membrane binding assay with [3H] 2-Mes-ADP; conditions: 1 nM [3H] 2-Mes-ADP, membranes of HEK cells expressing P2Y12 receptor; read-out: Binding activity (IC50)
T1 construct: expressed in transfected cells; host or cells: HEK cells
In short: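 Competition binding used 1 nM [3H]2-MeS-ADP on P2Y12-expressing HEK cell membranes for 1 h at room temperature, followed by filtration and scintillation counting.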

T1 sequence (Q9H244 whole entry): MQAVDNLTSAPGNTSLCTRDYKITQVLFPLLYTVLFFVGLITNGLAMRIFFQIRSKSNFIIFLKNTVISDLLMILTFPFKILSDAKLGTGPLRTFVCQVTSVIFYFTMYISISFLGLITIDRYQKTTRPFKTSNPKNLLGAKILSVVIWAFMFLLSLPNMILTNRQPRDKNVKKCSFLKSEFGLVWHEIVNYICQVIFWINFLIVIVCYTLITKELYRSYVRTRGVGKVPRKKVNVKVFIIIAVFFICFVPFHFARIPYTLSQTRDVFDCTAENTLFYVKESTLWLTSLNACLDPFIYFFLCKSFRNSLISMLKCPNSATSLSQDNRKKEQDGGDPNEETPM

Compound | Ki [1] [nM] | IC50 (Human P2Y12 receptor) [nM]
CCCc1cc2c(N3CCn4c(nnc4C(F)(F)C(F)(F)F)C3)nc(OCCO)nc2s1 [Example 6-9, 2-[4-(3-Pentafluoroethyl-5,6-dihydro-8H-[1,2,4]triazolo[4,3-a]pyrazin-7-yl)-6-propyl-thieno[2,3-d]pyrimidin-2-yloxy]-ethanol] | 30 | 120
CCCc1cc2c(N3CCn4c(nnc4C(F)(F)F)C3)nc(Oc3ccc(N4CCNCC4)cc3)nc2s1 [Example 3-46, 7-[2-(4-piperazin-1-yl-phenoxy)-6-propyl-thieno[2,3-d]pyrimidin-4-yl]-3-trifluoromethyl-5,6,7,8-tetrahydro-[1,2,4]triazolo[4,3-a]pyrazine] | > 4000 | 2330
CCCc1nc2c(N3CCn4c(nnc4C(F)(F)F)C3)nc(N3CCC[C@H](C(=O)O)C3)nc2s1 [Example 5-7, (S)-1-[2-Propyl-7-(3-trifluoromethyl-5,6-dihydro-8H-[1,2,4]triazolo[4,3-a]pyrazin-7-yl)-thiazolo[5,4-d]pyrimidin-5-yl]-piperidine-3-carboxylic acid] | 38 | 32
CCCc1cc2c(N3CCn4c(nnc4C(F)(F)F)C3)nc(N3CC[C@@H](C(=O)O)C3)nc2s1 [Example 1-61, (R)-1-[6-Propyl-4-(3-trifluoromethyl-5,6-dihydro-8H-[1,2,4]triazolo[4,3-a]pyrazin-7-yl)-thieno[2,3-d]pyrimidin-2-yl]-pyrrolidine-3-carboxylic acid] | 7300 | 11
CCCc1cc2c(N3CCn4c(nnc4C(F)(F)C(F)(F)F)C3)nc(N3CCNC(=O)C3)nc2s1 [Example 6-4, 4-[4-(3-Pentafluoroethyl-5,6-dihydro-8H-[1,2,4]triazolo[4,3-a]pyrazin-7-yl)-6-propyl-thieno[2,3-d]pyrimidin-2-yl]-piperazin-2-one] | 308 | 128
CCCc1cc2c(N3CCn4c(nnc4C(F)(F)F)C3)nc(NCCOCCO)nc2s1 [Example 1-123, 2-{2-[6-Propyl-4-(3-trifluoromethyl-5,6-dihydro-8H-[1,2,4]triazolo[4,3-a]pyrazin-7-yl)-thieno[2,3-d]pyrimidin-2-ylamino]-ethoxy}-ethanol] | 367 | 260
CCCc1cc2c(N3CCn4c(nnc4C(F)(F)F)C3)nc(N3CCC(N)CC3)nc2s1 [Example 1-69, 1-[6-Propyl-4-(3-trifluoromethyl-5,6-dihydro-8H-[1,2,4]triazolo[4,3-a]pyrazin-7-yl)-thieno[2,3-d]pyrimidin-2-yl]-piperidin-4-ylamine] | 300 | 82
CCCc1cc2c(N3CCn4c(nnc4C(F)(F)F)C3)nc(Oc3ccccc3C(=O)OC)nc2s1 [Example 3-32, 2-[6-Propyl-4-(3-trifluoromethyl-5,6-dihydro-8H-[1,2,4]triazolo[4,3-a]pyrazin-7-yl)-thieno[2,3-d]pyrimidin-2-yloxy]-benzoic acid methyl ester] | > 4000 | 650
CCCc1cc2c(N3CCn4c(nnc4C(F)(F)F)C3)nc(-c3nnc(CCOC)o3)nc2s1 [Example 4-37, 7-{2-[5-(2-Methoxyethyl)-[1,3,4]oxadiazol-2-yl]-6-propyl-thieno[2,3-d]pyrimidin-4-yl}-3-trifluoromethyl-5,6,7,8-tetrahydro-[1,2,4]triazolo[4,3-a]pyrazine] | 250 | 192
CCCc1cc2c(N3CCn4c(nnc4C(F)(F)F)C3)nc(N3CCN(C(=O)C(F)(F)F)CC3)nc2s1 [Example 1-82, 2,2,2-Trifluoro-1-{4-[6-propyl-4-(3-trifluoromethyl-5,6-dihydro-8H-[1,2,4]triazolo[4,3-a]pyrazin-7-yl)-thieno[2,3-d]pyrimidin-2-yl]-piperazin-1-yl}-ethanone] | > 4000 | 14300
CCCc1cc2c(N3CCn4c(C)nnc4C3)nc(N3CCNC(=O)C3)nc2s1 [Example 6-14, 4-[4-(3-Methyl-5,6-dihydro-8H-[1,2,4]triazolo[4,3-a]pyrazin-7-yl)-6-propyl-thieno[2,3-d]pyrimidin-2-yl]-piperazin-2-one] | 260 | 322
CCCc1cc2c(N3CCn4c(nnc4C(F)(F)F)C3)nc(N3CC(OC(C)=O)C3)nc2s1 [Example 1-84, Acetic Acid 1-[6-propyl-4-(3-trifluoromethyl-5,6-dihydro-8H-[1,2,4]triazolo[4,3-a]pyrazin-7-yl)-thieno[2,3-d]pyrimidin-2-yl]-azetidin-3-yl ester] | 73 | 160
CCCc1cc2c(N3CCn4c(nnc4C(F)(F)F)C3)nc(OCc3nc(CC(=O)O)co3)nc2s1 [Example 3-19, {2-[6-Propyl-4-(3-trifluoromethyl-5,6-dihydro-8H-[1,2,4]triazolo[4,3-a]pyrazin-7-yl)-thieno[2,3-d]pyrimidin-2-yloxymethyl]-oxazol-4-yl}-acetic acid] | > 4000 | 170
CCCc1cc2c(N3CCn4c(nnc4C(F)(F)F)C3)nc(N3CCNCC3)nc2s1 [Example 1-4, 7-(2-piperazin-1-yl-6-propyl-thieno[2,3-d]pyrimidin-4-yl)-3-trifluoromethyl-5,6,7,8-tetrahydro-[1,2,4]triazolo[4,3-a]pyrazine] | 300 | 64
CCCc1cc2c(N3CCn4c(nnc4C(F)(F)F)C3)nc(-c3nnn[nH]3)nc2s1 [Example 4-44, 7-[6-Propyl-2-(1H-tetrazol-5-yl)-thieno[2,3-d]pyrimidin-4-yl]-3-trifluoromethyl-5,6,7,8-tetrahydro-[1,2,4]triazolo[4,3-a]pyrazine] | > 4000 | 1600
CCCc1cc2c(N3CCn4c(nnc4C(F)(F)F)C3)nc(N(CCO)CCO)nc2s1 [Example 1-34, 2-{(2-Hydroxy-ethyl)-[6-propyl-4-(3-trifluoromethyl-5,6-dihydro-8H-[1,2,4]triazolo[4,3-a]pyrazin-7-yl)-thieno[2,3-d]pyrimidin-2-yl]-amino}-ethanol] | 81 | 143
CCCCOc1nc(N2CCn3c(nnc3C(F)(F)F)C2)c2cc(CCC)sc2n1 [Example 3-17, 7-(2-Butoxy-6-propyl-thieno[2,3-d]pyrimidin-4-yl)-3-trifluoromethyl-5,6,7,8-tetrahydro-[1,2,4]triazolo[4,3-a]pyrazine] | 3200 | 110
CCCc1cc2c(N3CCn4c(nnc4C(F)(F)F)C3)nc(OCCNS(C)(=O)=O)nc2s1 [Example 3-64, N-{2-[6-Propyl-4-(3-trifluoromethyl-5,6-dihydro-8H-[1,2,4]triazolo[4,3-a]pyrazin-7-yl)-thieno[2,3-d]pyrimidin-2-yloxy]-ethyl}-methanesulfonamide] | 150 | 110
CCCc1cc2c(N3CCn4c(nnc4C(F)(F)F)C3)nc(OCC(=O)O)nc2s1 [Example 3-9, [6-Propyl-4-(3-trifluoromethyl-5,6-dihydro-8H-[1,2,4]triazolo[4,3-a]pyrazin-7-yl)-thieno[2,3-d]pyrimidin-2-yloxy]-acetic acid] | 3700 | 826
CCCc1cc2c(N3CCn4c(nnc4C(F)(F)F)C3)nc(OCCc3cc(F)cc(F)c3F)nc2s1 [Example 3-21, 7-{6-Propyl-2-[2-(2,3,5-trifluoro-phenyl)-ethoxy]-thieno[2,3-d]pyrimidin-4-yl}-3-trifluoromethyl-5,6,7,8-tetrahydro-[1,2,4]triazolo[4,3-a]pyrazine] | 390 | 110
CCCc1cc2c(N3CCn4c(nnc4C(F)(F)F)C3)nc(N3CCC[C@H]3C(=O)OC(C)C)nc2s1 [Example 1-51, (S)-1-[6-Propyl-4-(3-trifluoromethyl-5,6-dihydro-8H-[1,2,4]triazolo[4,3-a]pyrazin-7-yl)-thieno[2,3-d]pyrimidin-2-yl]-pyrrolidine-2-carboxylic acid isopropyl ester] | 800 | 220
CCCc1cc2c(N3CCn4c(nnc4C(F)(F)F)C3)nc(N3CC[C@@H](O)C3)nc2s1 [Example 1-17, (R)-1-[6-Propyl-4-(3-trifluoromethyl-5,6-dihydro-8H-[1,2,4]triazolo[4,3-a]pyrazin-7-yl)-thieno[2,3-d]pyrimidin-2-yl]-pyrrolidin-3-ol] | 80 | 41
CCc1cc2c(N3CCn4c(nnc4C(F)(F)C(F)(F)F)C3)nc(OCC(O)CO)nc2s1 (stereo not shown) [Example 6-3, 3-[6-Ethyl-4-(3-pentafluoroethyl-5,6-dihydro-8H-[1,2,4]triazolo[4,3-a]pyrazin-7-yl)-thieno[2,3-d]pyrimidin-2-yloxy]-propane-1,2-diol] | 395 | 620
CCCc1cc2c(N3CCn4c(nnc4C(F)(F)F)C3)nc(OCc3ccccn3)nc2s1 [Example 3-23, 7-[6-Propyl-2-(pyridin-2-ylmethoxy)-thieno[2,3-d]pyrimidin-4-yl]-3-trifluoromethyl-5,6,7,8-tetrahydro-[1,2,4]triazolo[4,3-a]pyrazine] | > 4000 | 370
CCCc1cc2c(N3CCn4c(nnc4C(F)(F)F)C3)nc(N3CC(=NO)C(N)C3)nc2s1 (stereo not shown) [Example 1-116, 4-Amino-1-[6-propyl-4-(3-trifluoromethyl-5,6-dihydro-8H-[1,2,4]triazolo[4,3-a]pyrazin-7-yl)-thieno[2,3-d]pyrimidin-2-yl]-pyrrolidin-3-one oxime] | 28 | 70
CCCc1cc2c(N3CCn4c(nnc4C(F)(F)F)C3)nc(OC3CCOC3)nc2s1 (stereo not shown) [Example 3-5, 7-[6-Propyl-2-(tetrahydro-furan-3-yloxy)-thieno[2,3-d]pyrimidin-4-yl]-3-trifluoromethyl-5,6,7,8-tetrahydro-[1,2,4]triazolo[4,3-a]pyrazine] | 26 | 91
